Results on 3 molecules are retold here after patent US5302611A, “Oxindole alkaloids having properties stimulating the immunologic system & preparation containing the same” (Keplinger; Klaus, priority 1980, dated 1994).

The test system of experiment [1] is ascites cells of Walker-250-carcinosarcoma. The experiment can be described thus: Cytotoxicity test by the 3H-thymidine-incorporation test on ascites cells. The experiment is classed as cell-based, rats. The settings on record: Rattus norvegicus, read-out: mean value of the inhibition of 3H-thymidine incorporation. The text has this:
5. Cytotoxicity test by the ^3 H-thymidine-incorporation test on ascites cells
Since in the granulocytic test some substances lyse the granulocytes at high concentrations we examined the cell-damaging effect at the model of the ^3 H-thymidine-incorporation test in ascites cells to be able to find a possible relation between the phagocytosis increase and cytotoxicity in potential active substances.
In this in-vitro-test system according to WEITZEL et al (H oppe-Seyler's Z. physiolog. Chem. 348, 433, 1967) the cytotoxicity of substances by inhibition of the DNA-synthesis of tumour cells can be numerically determined by the changed incorporation rates of ^3 H-thymidine in ascites cells of Walter-250-carcinos arcoma of rats.
The test was carried out as follows: 3 ml of cell suspension of Walker-250-carcinosarcoma-ascites were mixed with 10 ml of MEDIUM L-15 (Boehringer) in a 50 ml centrifugal glass and centrifugated for 10 minutes. The supernatant was decanted and the centrifugal glass was filled up with medium to 1 cm below the rim. From the stirred cell suspension 1 ml (corresponds to 2×10^6 cells/ml) per sample was given into a centrifugal glass and 500 μl of the test solution were added, the control test was carried out with 500 μl of medium. […] The filters were given in polyethylene flasks and the activities were measured in toluene-scintillator. […]
In general terms: Dividing cells build labelled thymidine or BrdU into new DNA.

Experiment [2] has as its system macrophage-phagocytosis. The settings on record: concentrations of 10^-4 % and 10^-5 %; cited from earlier work.
In experiment [3] the test system is neutrophil granulocytes (PMNL). In words: Granulocytic test modified after BRANDT (phagocytosis of yeast particles). The settings on record: up to dilutions of 10^-6 %. The experiment is classed as cell-based, human. The source says:
1. […] They represent about 60-70% of all leucocytes in the human blood. The phagocytosis effect of all these granulocytes can be measured in vitro according to a method developed by BRAND (Scand. J. Haematol. Suppl. 2, 1967) and modified by TYMPNER (Munich Med. Weekly 8, 251, 1978).
A granulocytic fraction is taken from the blood of healthy probands (PMNL--abbreviation of polymorphonuclearleucocytes)
This PMNL-fraction mainly consists of neutrophil granulocytes and few eosinophil and basophil granulocytes as well as of lymphocytes, monocytes and thrombocytes. After addition of a defined amount of yeast cells (Saccharomyces cerevisiae) and the substance to be tested incubation is carried out for 10 minutes at 37° C., the suspension is spread on an object carrier and incubated at room temperature for further 35 minutes. Then the spreads are coloured and microscopically evaluated. 100 PMNL-cells are selected per object carrier, and it is determined how many yeast particles of the individual cells have been phagocytised. The phagocytosis index indicates the average number of phagocytised yeast particles.
15 ml of heparinised venous blood of clinically healthy adults was diluted with 1.5% of dextran T 500 (Pharmacia) 2:1 and allowed to stand at room temperature for 30 minutes. The supernatant containing leucocytes was injected into a sterile plastic tube and centrifugated for 7 minutes at 500 r.p.m. The granulocytes in the deposit were washed twice with 5 ml of PPM I-buffer in each case. Then the granulocytes were suspended in about 5 ml of buffer and adjusted in the Neubauer's chamber to a concentration of 5×10^6 cells/ml.
Yeast suspended in 0.9% of NaCl was heated to 100° C., three times filtered through gaze and adjusted to 3-5×10^7 particles/ml.
The serum of 5 clinically healthy adults was mixed and frozen in portions of 5 ml. For the test dilution was carried out with 0.9% of NaCl 1:10.
The test was carried out as follows: 0.2 ml of substance dissolved in 0.9% of NaCl and 0.2 ml of 0.9% NaCl, as a control substance, were pipetted to 0.2 ml, each, of pool serum, granulocyte- and yeast suspension and first incubated for 10 minutes at 37° C. Then 0.5 ml of each preparation were applied to an object carrier and incubated in a humid chamber at room temperature for further 35 minutes. Granulocytes deposited, the supernatant was carefully washed with 0.9% of NaCl, and the object carrier was dried with a dryer.
100 granulocytes were counted out per object carrier, and it was determined how many yeast particles of the individual cells had been phagocytised. The phagocytosis index (PJ) indicates the average number of yeast particles per granulocyte. The increase (S) of the phagocytosis activity in the blank value was calculated according to: [formula]

In experiment [4] the test system is diluted whole blood. The experiment can be described thus: Chemiluminescence test (CL), whole blood method. The format is cell-based. The settings on record: Homo sapiens, 1 h, read-out: Percental increase of the CL-response. How it is done: (§1) 2. Chemiluminescence test (CL)
(§2) The low light yield of such CL-reactions of phagocytised cells is increased in the in-vitro-experiment by the addition of substances which are oxydated by activated oxygen and thus produce light of a certain wavelength, which can be physically measured. Suitable substrates are luminole (5-amino-2,3-dihydro-1,4-phthalazindione) and lucigenine (10,10'-dimethyl-9,9'-biacri-diniumdinitrate), which increase the CL-response by 10^3 times.
(§3) All tests were carried out in 6-channel-Biolumat LB 9505 of Berthold, connected to an Apple-computer with a CL-evaluation program of Berthold.
(§4) Lucigenine was chosen for light amplification which emits photons at a narrow wavelength distribution of about 510 nm and thus almost lies in the optimum of the photo-multiplier sensitivity.
(§5) The pH-value of the measuring solution should be between 7.1 and 7.4, which is obtained by the addition of veronal-buffered salt solution. The test substances were dissolved in phosphate-buffered salt solution, (PBS-buffer). Both buffer systems contain 0.1% of glucose, because the "respiratory-burst"-reaction is connected with an increase of the glucose-metabolism.
(§6) Opsonised zymosan was used for phagocyte-activation. The measurement of the CL of isolated granulocytes was carried out with native blood of isolated polymorphonuclear leucocytes (PMNL), which had been adjusted with PBS-Puffer to 10^6 […].
(§7) The test substances were first together with the isolated granulocytes or with the whole blood incubated at room temperature for 10 minutes and then in biclumate for 10 minutes at 37° C. After addition of the opsonised zymosan, measurement in the biolumat at 37° C. started. […] A curve which was typical for each substance was obtained. The integrated surfaces are directly proportional to the intensity of the CL-response.
(§8) For determining the stimulation of the "respiratory-burst" of granulocytes,which had taken place, the same formula as for the granulocytic test was used.
20 ml of native blood were mixed with 30 mg EDTA as anti-coagulant and diluted 1:100 with PBS-buffer.
460 μl of veronal-buffered salt solution
200 μl of diluted whole blood
(§9) 100 μl of lucigenine-solution
(§10) 200 μl of substance dissolved in PBS and PBS as control
(§11) After preincubation at room temperature for 10 minutes and subsequent incubation for 10 minutes at 37° C. in 6-channel-Biolumat, 40 μl of opsonised zymosan were admixed under through stirring and measurement was started. Measuring was stopped after 60 minutes.
(§12) The CL-response of the samples was stored by a computer over the measuring period, and after measurement illustrated in the form of a curve. By integration of the surfaces, the intensity of the CL-response of the respective sample was obtained in cpm.
(§13) The increase S of the CL-response by a test substance was calculated according to [formula]

The test system of experiment [5] is isolated polymorphonuclear leucocytes (PMNL). In words: Chemiluminescence test (CL), PMNL method (isolated granulocytes). The settings on record: for Peak-Maximum: control 2.12; for tmax: control 50.0. The experiment is classed as cell-based, human. How it is done:
as §1, §2, §3, §4, §5, §6, §7, §8
20 ml of native blood were mixed with 30 mg EDTA. 15 ml of this blood were mixed with 7 ml of dextran in a syringe and allowed to stand at room temperature for 30 minutes. The leucocyte-containing supernatant was transfered into a sterile centrifugal tube and centrifugated at 1000 r.p.m. for 10 minutes. The deposit consisted of leucocytes and residual portions of erythrocytes, which can influence measurement by their colour quench. The residual erythrocytes were removed by hypotonic lyis. For this purpose, the deposit was suspended in 0.25% of NaCl-solution and agitated on the whirlmix for 20 seconds. Then 20 ml of 1.6% NaCl-solution were admixed and agitated again. After centrifugation at 2000 r.p.m. for 10 minutes, the supernatant was sucked off and the whole process was repeated twice. Subsequently, the deposit was suspended in 2 ml of PBS-buffer and diluted 1:10 with Turcks-solution. It was adjusted in the Neubauer's chamber with PBS-buffer to 10^6 -cells/ml.
630 μl of veronal-buffered salt solution
as §9, §10, §11, §12, §13

The mark [6] stands for this setting: isolated granulocytes, concentration 10^-4 %.
[7] abbreviates: isolated granulocytes, concentration 10^-5 %.
Where [8] appears, read: isolated granulocytes, concentration 10^-6 %.
[9] abbreviates: isolated granulocytes, concentration 10^-7 %.
The mark [10] stands for this setting: isolated granulocytes, concentration 10^-8 %.

Read-outs that look alike come from different tables or passages of the source.

`CN(Cc1cnc2nc(N)nc(N)c2n1)c1ccc(C(=O)N[C@@H](CCC(=O)O)C(=O)O)cc1` [Methotrexat®, N-[4-[[(2,4-Diamino-6-pteridinyl)methyl]methylamino]benzoyl]-L-glutamic acid]: the inhibition at 2000 µg/mL in experiment [1] came to 43%.

As to `CC[C@]1(O)C[C@H]2CN(CCc3c([nH]c4ccccc34)[C@@](C(=O)OC)(c3cc4c(cc3OC)N(C=O)[C@H]3[C@@](O)(C(=O)OC)[C@H](OC(C)=O)[C@]5(CC)C=CCN6CC[C@]43[C@@H]65)C2)C1` [vincristine, reference compound], in experiment [2], the “in-vitro-inhibition of the macrophage-phagocytosis” value is given as “in-vitro-inhibitionof the macrophage-phagocytosis has been found”. Moreover, in experiment [3], the “effect in the granulocytic test” value is given as “no effects have been found”.

Consider `COc1cccc2c1cc([N+](=O)[O-])c1c(C(=O)O)cc3c(c12)OCO3` [aristolochic acid], for which the activation at 0.001 % in experiment [4] (concentration 10^-3 %) was determined as 51.9%. The activation at 0.0001 % in experiment [4] (concentration 10^-4 %) worked out at 19.2%; in experiment [5] (Homo sapiens, 1 h, PMNL, concentration 10^-4 %, read-out: Percental increase of the CL-response) it was 85.1%; in experiment [5] (Homo sapiens, PMNL, 1 h, isolated granulocytes, concentration 10^-4 %, read-out: Increase of CL-response) it was 126%. For the same molecule, the activation at 1e-05 % worked out at 21.8% in experiment [4] (concentration 10^-5 %); 93.5% in experiment [5] (Homo sapiens, 1 h, PMNL, concentration 10^-5 %, read-out: Percental increase of the CL-response); 160% in experiment [5] (Homo sapiens, PMNL, 1 h, isolated granulocytes, concentration 10^-5 %, read-out: Increase of CL-response). Besides, the activation at 1e-06 % in experiment [4] (concentration 10^-6 %) came to 14%; in experiment [5] (Homo sapiens, 1 h, PMNL, concentration 10^-6 %, read-out: Percental increase of the CL-response) it was 68.3%; in experiment [5] (Homo sapiens, PMNL, 1 h, isolated granulocytes, concentration 10^-6 %, read-out: Increase of CL-response), 69.8%. Further, the activation at 1e-07 % in experiment [4] (concentration 10^-7 %) came to 5.5%; in experiment [5] (Homo sapiens, 1 h, PMNL, concentration 10^-7 %, read-out: Percental increase of the CL-response) it was 61.9%; in experiment [5] (Homo sapiens, PMNL, 1 h, isolated granulocytes, concentration 10^-7 %, read-out: Increase of CL-response) it was 52.8%. Besides, the activation at 1e-08 % in experiment [5] (Homo sapiens, 1 h, PMNL, concentration 10^-8 %, read-out: Percental increase of the CL-response) amounted to 58.7%; in experiment [5] (Homo sapiens, PMNL, 1 h, isolated granulocytes, concentration 10^-8 %, read-out: Increase of CL-response) it was 93.4%. Moreover, the activation at 1e-09 % in experiment [5] (Homo sapiens, 1 h, PMNL, concentration 10^-9 %, read-out: Percental increase of the CL-response) worked out at 31.3%. Besides, the Peak-Maximum is reported as 4.80 cpm × 10^5 in experiment [5] (setting [6]); 5.52 cpm × 10^5 in experiment [5] (setting [7]); 3.40 cpm × 10^5 in experiment [5] (setting [8]); 3.24 cpm × 10^5 in experiment [5] (setting [9]); 4.10 cpm × 10^5 in experiment [5] (setting [10]). The tmax in experiment [5] (setting [6]) is listed as 30.0 min; in experiment [5] (setting [7]), 32.6 min; in experiment [5] (setting [8]), 34.6 min; in experiment [5] (setting [9]) it was 32.0 min; in experiment [5] (setting [10]), 29.3 min. For the same molecule, in experiment [5] (isolated granulocytes, lower by a power of ten than in the granulocytic test), the “concentration of the efficiency maximum in the CL-test” value was 10^-5%.
